Data: the NIST ThermoML archive (doi:10.1021/je050020m)

Conditions: Liquid, Vibrating tube method

CCCCCCCCCC [decane]
Conditions | mass density [kg/m3]
313.09 K, 1048 kPa | 715.63
313.09 K, 2010 kPa | 716.43
313.09 K, 2997 kPa | 717.28
313.09 K, 4060 kPa | 718.18
313.09 K, 5029 kPa | 718.98
313.09 K, 6019 kPa | 719.8
313.09 K, 7016 kPa | 720.64
313.09 K, 8050 kPa | 721.47
313.09 K, 9000 kPa | 722.24
313.09 K, 10029 kPa | 723.06
313.09 K, 11016 kPa | 723.85
313.09 K, 12012 kPa | 724.63
313.09 K, 13027 kPa | 725.4
313.09 K, 14011 kPa | 726.15
313.09 K, 15010 kPa | 726.91
313.09 K, 16030 kPa | 727.65
313.09 K, 17016 kPa | 728.38
313.09 K, 18037 kPa | 729.1
313.09 K, 19000 kPa | 729.81
313.09 K, 20019 kPa | 730.5
313.09 K, 21014 kPa | 731.21
313.09 K, 22032 kPa | 731.92
313.09 K, 23021 kPa | 732.62
313.09 K, 24016 kPa | 733.33
313.09 K, 25012 kPa | 734.06
323.03 K, 1025 kPa | 707.94
323.03 K, 2017 kPa | 708.85
323.03 K, 3015 kPa | 709.76
323.03 K, 4018 kPa | 710.65
323.03 K, 5022 kPa | 711.53
323.03 K, 6021 kPa | 712.41
323.03 K, 7018 kPa | 713.31
323.03 K, 8022 kPa | 714.15
323.03 K, 9016 kPa | 715.01
323.03 K, 10012 kPa | 715.84
323.03 K, 11022 kPa | 716.67
323.03 K, 12015 kPa | 717.51
323.03 K, 13020 kPa | 718.33
323.03 K, 14011 kPa | 719.12
323.03 K, 15010 kPa | 719.9
323.03 K, 16019 kPa | 720.71
323.03 K, 17010 kPa | 721.46
323.03 K, 18013 kPa | 722.22
323.03 K, 19033 kPa | 723
323.03 K, 20022 kPa | 723.74
323.03 K, 21014 kPa | 724.45
323.03 K, 22023 kPa | 725.22
323.03 K, 23025 kPa | 725.93
323.03 K, 24016 kPa | 726.68
323.03 K, 25021 kPa | 727.42
332.95 K, 1022 kPa | 700.4
332.95 K, 2005 kPa | 701.33
332.95 K, 3025 kPa | 702.32
332.95 K, 4025 kPa | 703.25
332.95 K, 5018 kPa | 704.2
332.95 K, 6018 kPa | 705.12
332.95 K, 7019 kPa | 706.08
332.95 K, 8023 kPa | 706.96
332.95 K, 9021 kPa | 707.89
332.95 K, 10017 kPa | 708.78
332.95 K, 11033 kPa | 709.68
332.95 K, 12023 kPa | 710.54
332.95 K, 13009 kPa | 711.42
332.95 K, 14016 kPa | 712.21
332.95 K, 15025 kPa | 713.05
332.95 K, 16011 kPa | 713.87
332.95 K, 17017 kPa | 714.69
332.95 K, 18016 kPa | 715.5
332.95 K, 19015 kPa | 716.28
332.95 K, 20029 kPa | 717.09
332.95 K, 21001 kPa | 717.84
332.95 K, 22034 kPa | 718.63
332.95 K, 23017 kPa | 719.41
332.95 K, 24023 kPa | 720.18
332.95 K, 25002 kPa | 720.95
343.8 K, 1014 kPa | 692.56
343.8 K, 2027 kPa | 693.64
343.8 K, 3016 kPa | 694.64
343.8 K, 4020 kPa | 695.65
343.8 K, 5016 kPa | 696.67
343.8 K, 6019 kPa | 697.68
343.8 K, 7026 kPa | 698.66
343.8 K, 8022 kPa | 699.65
343.8 K, 9014 kPa | 700.58
343.8 K, 10017 kPa | 701.53
343.8 K, 11022 kPa | 702.48
343.8 K, 12021 kPa | 703.39
343.8 K, 13011 kPa | 704.27
343.8 K, 14013 kPa | 705.16
343.8 K, 15025 kPa | 706.05
343.8 K, 16019 kPa | 706.94
343.8 K, 17010 kPa | 707.79
343.8 K, 18023 kPa | 708.61
343.8 K, 19030 kPa | 709.47
343.8 K, 20008 kPa | 710.25
343.8 K, 21017 kPa | 711.1
343.8 K, 22035 kPa | 711.92
343.8 K, 23004 kPa | 712.73
343.8 K, 24008 kPa | 713.53
343.8 K, 25103 kPa | 714.44
352.71 K, 2132 kPa | 686.04
352.71 K, 3053 kPa | 687.07
352.71 K, 4028 kPa | 688.15
352.71 K, 5028 kPa | 689.19
352.71 K, 6065 kPa | 690.28
352.71 K, 7007 kPa | 691.26
352.71 K, 8041 kPa | 692.36
352.71 K, 9064 kPa | 693.4
352.71 K, 10047 kPa | 694.38
352.71 K, 11019 kPa | 695.38
352.71 K, 12012 kPa | 696.31
352.71 K, 13031 kPa | 697.31
352.71 K, 14010 kPa | 698.18
352.71 K, 15014 kPa | 699.14
352.71 K, 16012 kPa | 700.05
352.71 K, 17008 kPa | 700.95
352.71 K, 17959 kPa | 701.8
352.71 K, 19020 kPa | 702.7
352.71 K, 20044 kPa | 703.6
352.71 K, 21044 kPa | 704.46
352.71 K, 22024 kPa | 705.31
352.71 K, 23009 kPa | 706.13
352.71 K, 24014 kPa | 707
352.71 K, 25000 kPa | 707.86
362.63 K, 2054 kPa | 678.23
362.63 K, 3010 kPa | 679.34
362.63 K, 4132 kPa | 680.68
362.63 K, 5020 kPa | 681.68
362.63 K, 6026 kPa | 682.79
362.63 K, 7042 kPa | 683.95
362.63 K, 8057 kPa | 685.06
362.63 K, 9014 kPa | 686.08
362.63 K, 10034 kPa | 687.17
362.63 K, 10999 kPa | 688.24
362.63 K, 12014 kPa | 689.26
362.63 K, 13025 kPa | 690.26
362.63 K, 13992 kPa | 691.22
362.63 K, 15019 kPa | 692.24
362.63 K, 16004 kPa | 693.18
362.63 K, 17008 kPa | 694.11
362.63 K, 18002 kPa | 695.04
362.63 K, 19037 kPa | 696.02
362.63 K, 20027 kPa | 696.93
362.63 K, 21030 kPa | 697.8
362.63 K, 22003 kPa | 698.73
362.63 K, 23027 kPa | 699.61
362.63 K, 24046 kPa | 700.55
362.63 K, 25011 kPa | 701.39
